The results in this text go back to EP3885436A1, “POLYPEPTIDES WITH PEROXIDASE ACTIVITY” (Technische Universität Wien, priority 2020, dated 2021).

Holding throughout (type): biochemical
In test [1] the target is T1, horseradish peroxidase variant HRP N13D/N57S/N175S/N255D/N268D, produced in E. coli (Armoracia rusticana, UniProt P00433, N205S/N285D/N298D/N43D/N87S).
T1 construct: made in house
Here is the method: (§1) Plant HRP Type VI-A (Cat. No.: P6782) was obtained from Sigma-Aldrich (St. Louis, MO, USA). All HRP variants produced in E. coli consisted of the sequence as set forth in SEQ ID NO: 2 with the indicated mutations unless specified otherwise.
(§2) For measurements with 3,3',5,5'-tetramethylbenzidine (TMB) as substrate, the reaction mixture in each well of the 96-well plate contained a saturating hydrogen peroxide concentration of 1 mM and varying TMB concentrations (20 - 550 µM) in 50 mM phosphate-citrate buffer pH 5 in a final volume of 200 µL. Protein sample (5 µL) was mixed with 175 µl TMB-buffer mixture and the reaction was started with 20 µl hydrogen peroxide solution (10 mM). The increase in absorption was followed at 652 nm for 60s at 30 °C in a Tecan Infinite M200 PRO instrument. The kinetic parameters were calculated using Sigma Plot software (Systat Software INC., San Jose, CA, USA) and an extinction coefficient of ε652 = 39 mM^-1 cm^-1 (see Josephy, et al. "The horseradish peroxidase-catalyzed oxidation of 3, 5, 3', 5'-tetramethylbenzidine. Free radical and charge-transfer complex intermediates." Journal of Biological Chemistry 257.7 (1982): 3669-3675).
(§3) The increase in absorption was followed at 420 nm for 120 s at 30 °C in a Tecan Infinite M200 PRO instrument. The kinetic parameters were calculated using Sigma Plot software (Systat Software INC., San Jose, CA, USA) and an extinction coefficient of ε420 = 36 mM^-1 cm^-1 (see Childs and Bardsley. "The steady-state kinetics of peroxidase with 2, 2'-azino-di-(3-ethyl-benzthiazoline-6-sulphonic acid) as chromogen." Biochemical Journal 145.1 (1975): 93-103).
as §3

For test [2], the target named is T2, horseradish peroxidase variant HRP N13D/N57S/P146Q/N175S/N255D/N268D/N275K (mHRP, SEQ ID NO: 4), produced in E. coli (Armoracia rusticana, UniProt P00433, N205S/N285D/N298D/N305K/N43D/N87S/P176Q).
T2 construct: made in house
As to the method: as §1, §2, §3, §3

Test [3] deals with T3, horseradish peroxidase, wild-type HRP (rHRP, variant C1A, SEQ ID NO: 2), produced in E. coli (Armoracia rusticana, UniProt P00433).
T3 construct: made in house
T3 sequence (P00433 with tags, fused parts or gaps): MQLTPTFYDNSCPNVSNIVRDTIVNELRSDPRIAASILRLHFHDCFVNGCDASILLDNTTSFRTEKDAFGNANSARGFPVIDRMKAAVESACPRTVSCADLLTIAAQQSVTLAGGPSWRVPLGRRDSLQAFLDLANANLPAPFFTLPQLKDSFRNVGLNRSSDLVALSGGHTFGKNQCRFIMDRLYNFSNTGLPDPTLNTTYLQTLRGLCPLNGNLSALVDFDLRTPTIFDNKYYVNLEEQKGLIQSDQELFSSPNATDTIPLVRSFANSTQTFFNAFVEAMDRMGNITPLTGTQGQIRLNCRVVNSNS
Nature of the test: Enzyme kinetic parameters, 96-well plate assay. The following applies: substrate TMB (20 - 550 µM), 1 mM H2O2, 50 mM phosphate-citrate buffer pH 5, 30 °C; Table 6. As to the method:
as §1, §2
(§4) The increase in absorption was followed at 420 nm for 120 s at 30 °C in a Tecan Infinite M200 PRO instrument. […]

Test [4] deals with T4, plant-derived HRP (pHRP), Plant HRP Type VI-A, horseradish peroxidase (Armoracia rusticana, UniProt P00433).
T4 construct: The plant-derived enzyme undergoes post-translational modifications, resulting inter alia in a free N-terminus without an appended methionine; purchased Sigma-Aldrich P6782; host or cells: extracted from the plant
T4 sequence (P00433 31-338 limits assumed): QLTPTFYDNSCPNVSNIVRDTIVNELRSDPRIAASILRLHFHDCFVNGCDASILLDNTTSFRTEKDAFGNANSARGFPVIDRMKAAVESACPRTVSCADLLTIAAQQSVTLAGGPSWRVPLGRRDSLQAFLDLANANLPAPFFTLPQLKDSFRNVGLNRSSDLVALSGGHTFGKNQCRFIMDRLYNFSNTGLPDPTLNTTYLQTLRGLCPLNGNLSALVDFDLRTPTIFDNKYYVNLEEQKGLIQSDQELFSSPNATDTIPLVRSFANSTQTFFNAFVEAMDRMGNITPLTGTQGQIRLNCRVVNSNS
Put plainly: Enzyme kinetic parameters, 96-well plate assay. The following applies: substrate TMB (20 - 550 µM), 1 mM H2O2, 50 mM phosphate-citrate buffer pH 5, 30 °C; Table 6. Here is the method:
as §1, §2, §4

Setting [5] is: substrate H2O2 (0.001 - 1 mM), 10 mM ABTS, 50 mM phosphate-citrate buffer pH 5, 30 °C, Table 3.

Where two headings read alike, the source gives them in different places.

T2 sequence (P00433 31-338 N43D/N87S/P176Q/N205S/N285D/N298D/N305K): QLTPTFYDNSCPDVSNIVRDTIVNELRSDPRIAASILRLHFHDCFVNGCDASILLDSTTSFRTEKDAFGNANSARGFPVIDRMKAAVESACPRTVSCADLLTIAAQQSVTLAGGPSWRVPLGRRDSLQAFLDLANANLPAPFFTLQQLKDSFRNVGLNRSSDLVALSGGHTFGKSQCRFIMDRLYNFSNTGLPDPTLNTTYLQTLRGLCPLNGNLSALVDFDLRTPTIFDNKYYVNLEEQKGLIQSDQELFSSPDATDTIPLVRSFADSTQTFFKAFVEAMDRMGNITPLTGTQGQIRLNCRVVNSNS
T1 sequence (P00433 31-338 N43D/N87S/N205S/N285D/N298D): as the sequence (P00433 31-338 N43D/N87S/P176Q/N205S/N285D/N298D/N305K) above, with Q146P, K275N counted along it

For orientation: kcat means the maximal rate divided by the concentration of active sites. `OO` [H2O2, hydrogen peroxide]: the kcat in test [1] (setting [5]) was 1152 s⁻¹; in test [2] (setting [5]), 1344 ± 22 s⁻¹.

Regarding `Cc1cc(-c2cc(C)c(N)c(C)c2)cc(C)c1N` [TMB, 3,3',5,5'-tetramethylbenzidine], the kcat in test [3] was 4169 ± 207 s⁻¹; in test [4], 4343 s⁻¹; in test [1] (substrate TMB (20 - 550 µM), 1 mM H2O2, 50 mM phosphate-citrate buffer pH 5, 30 °C, Table 2), 3236 ± 193 s⁻¹; in test [2] (substrate TMB (20 - 550 µM), 1 mM H2O2, 50 mM phosphate-citrate buffer pH 5, 30 °C, Table 2 (Example 3)), 4342 ± 292 s⁻¹; in test [2] (substrate TMB (20 - 550 µM), 1 mM H2O2, 50 mM phosphate-citrate buffer pH 5, 30 °C, Table 6 (Example 4)), 4293 ± 171 s⁻¹.
